Assay results from paper PMC12340637, “Transport of Small Aliphatic Amines by Polyspecific Solute Carriers: Deciphering Structure–Function Relationships” (ACS Pharmacology & Translational Science, 2025).
Where two headings read alike, the source gives them in different places. Marks after values point to notes of the source that are not given here. Blank lines part the entries; values can stand above or below the molecule they belong to.

Experiments:
MATE2-K (SLC47A2) [1] = biological target: T1, MATE2-K (SLC47A2) (Homo sapiens, UniProt Q86VL8); experiment: in vitro; settings: pH 7.4
T1 sequence (Q86VL8 1-566 isoform Q86VL8-3): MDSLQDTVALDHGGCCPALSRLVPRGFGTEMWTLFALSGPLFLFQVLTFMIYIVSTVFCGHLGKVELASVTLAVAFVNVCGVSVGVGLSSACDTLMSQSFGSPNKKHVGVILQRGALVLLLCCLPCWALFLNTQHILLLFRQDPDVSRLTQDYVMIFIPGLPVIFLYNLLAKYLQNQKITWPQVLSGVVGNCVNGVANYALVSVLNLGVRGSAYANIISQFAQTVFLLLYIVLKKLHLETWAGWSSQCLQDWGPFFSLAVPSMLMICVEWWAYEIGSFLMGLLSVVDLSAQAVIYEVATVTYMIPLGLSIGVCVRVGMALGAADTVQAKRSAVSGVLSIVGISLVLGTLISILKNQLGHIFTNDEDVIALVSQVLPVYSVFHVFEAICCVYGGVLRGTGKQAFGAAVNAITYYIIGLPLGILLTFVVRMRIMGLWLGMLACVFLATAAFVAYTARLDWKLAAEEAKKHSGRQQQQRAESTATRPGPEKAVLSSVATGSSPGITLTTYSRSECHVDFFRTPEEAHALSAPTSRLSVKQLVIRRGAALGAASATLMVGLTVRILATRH

OCT2 (SLC22A2) [2] = biological target: T2, OCT2 (SLC22A2) (Homo sapiens, UniProt O15244); experiment: Cellular uptake into OCT2-overexpressing HEK293 cells vs EV control cells (HPLC-MS/MS)
T2 sequence (O15244 1-555): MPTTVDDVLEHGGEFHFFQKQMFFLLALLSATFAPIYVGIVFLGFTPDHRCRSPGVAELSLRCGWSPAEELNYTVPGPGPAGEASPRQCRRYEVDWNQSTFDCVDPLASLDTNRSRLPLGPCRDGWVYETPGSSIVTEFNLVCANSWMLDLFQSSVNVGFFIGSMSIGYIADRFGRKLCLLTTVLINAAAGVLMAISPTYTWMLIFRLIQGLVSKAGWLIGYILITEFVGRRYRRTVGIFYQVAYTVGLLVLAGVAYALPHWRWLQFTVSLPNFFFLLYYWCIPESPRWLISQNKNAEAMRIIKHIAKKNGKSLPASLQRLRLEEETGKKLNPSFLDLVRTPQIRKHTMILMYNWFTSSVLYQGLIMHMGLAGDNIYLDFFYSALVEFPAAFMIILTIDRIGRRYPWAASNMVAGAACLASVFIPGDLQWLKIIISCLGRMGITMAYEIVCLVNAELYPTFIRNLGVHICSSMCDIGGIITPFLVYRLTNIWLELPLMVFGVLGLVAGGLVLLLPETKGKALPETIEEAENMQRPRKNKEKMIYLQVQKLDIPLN

OCT3 (SLC22A3) = biological target: T3, OCT3 (SLC22A3) (Homo sapiens, UniProt O75751); experiment: Cellular uptake into OCT3-overexpressing HEK293 cells vs EV control cells (HPLC-MS/MS)
T3 sequence (O75751 1-556): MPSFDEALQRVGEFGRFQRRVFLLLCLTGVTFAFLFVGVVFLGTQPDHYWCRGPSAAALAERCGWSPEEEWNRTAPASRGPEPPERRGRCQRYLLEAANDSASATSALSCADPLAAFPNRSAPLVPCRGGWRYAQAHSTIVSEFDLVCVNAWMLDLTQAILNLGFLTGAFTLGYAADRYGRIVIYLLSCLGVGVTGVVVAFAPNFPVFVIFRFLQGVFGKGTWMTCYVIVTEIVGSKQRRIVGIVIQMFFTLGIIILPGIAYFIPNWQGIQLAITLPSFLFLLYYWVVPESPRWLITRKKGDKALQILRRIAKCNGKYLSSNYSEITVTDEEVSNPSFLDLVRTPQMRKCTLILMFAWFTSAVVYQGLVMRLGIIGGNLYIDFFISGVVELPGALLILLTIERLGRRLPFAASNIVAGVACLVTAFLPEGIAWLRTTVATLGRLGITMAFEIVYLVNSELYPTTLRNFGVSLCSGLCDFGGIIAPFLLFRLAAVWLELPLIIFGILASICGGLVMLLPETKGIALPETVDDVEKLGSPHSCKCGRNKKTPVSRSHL

OCT2 (SLC22A2) [3] = biological target: T2, OCT2 (SLC22A2); experiment: in vitro; settings: pH 7.4
MATE1 (SLC47A1) = biological target: T4, MATE1 (SLC47A1) (Homo sapiens, UniProt Q96FL8); experiment: Cellular uptake into MATE1-overexpressing HEK293 cells vs EV control cells (HPLC-MS/MS)
T4 sequence (Q96FL8 1-570): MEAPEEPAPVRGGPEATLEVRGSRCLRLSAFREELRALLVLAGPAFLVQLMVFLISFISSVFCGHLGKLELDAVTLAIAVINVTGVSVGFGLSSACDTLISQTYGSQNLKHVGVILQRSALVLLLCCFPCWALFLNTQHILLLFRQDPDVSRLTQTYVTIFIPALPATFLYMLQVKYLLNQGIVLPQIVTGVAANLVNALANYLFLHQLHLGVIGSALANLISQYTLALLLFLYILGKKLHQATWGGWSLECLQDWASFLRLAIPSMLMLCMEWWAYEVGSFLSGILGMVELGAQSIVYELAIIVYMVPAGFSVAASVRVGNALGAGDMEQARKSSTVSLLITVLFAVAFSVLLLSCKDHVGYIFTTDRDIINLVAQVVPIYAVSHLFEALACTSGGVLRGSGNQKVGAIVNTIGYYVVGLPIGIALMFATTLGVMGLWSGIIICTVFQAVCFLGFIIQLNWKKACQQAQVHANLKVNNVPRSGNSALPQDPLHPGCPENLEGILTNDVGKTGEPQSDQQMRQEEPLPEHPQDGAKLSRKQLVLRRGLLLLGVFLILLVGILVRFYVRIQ

OCT1 (SLC22A1) = biological target: T5, OCT1 (SLC22A1) (Homo sapiens, UniProt O15245); experiment: Cellular uptake into OCT1-overexpressing HEK293 cells vs EV control cells (HPLC-MS/MS)
T5 sequence (O15245 1-554): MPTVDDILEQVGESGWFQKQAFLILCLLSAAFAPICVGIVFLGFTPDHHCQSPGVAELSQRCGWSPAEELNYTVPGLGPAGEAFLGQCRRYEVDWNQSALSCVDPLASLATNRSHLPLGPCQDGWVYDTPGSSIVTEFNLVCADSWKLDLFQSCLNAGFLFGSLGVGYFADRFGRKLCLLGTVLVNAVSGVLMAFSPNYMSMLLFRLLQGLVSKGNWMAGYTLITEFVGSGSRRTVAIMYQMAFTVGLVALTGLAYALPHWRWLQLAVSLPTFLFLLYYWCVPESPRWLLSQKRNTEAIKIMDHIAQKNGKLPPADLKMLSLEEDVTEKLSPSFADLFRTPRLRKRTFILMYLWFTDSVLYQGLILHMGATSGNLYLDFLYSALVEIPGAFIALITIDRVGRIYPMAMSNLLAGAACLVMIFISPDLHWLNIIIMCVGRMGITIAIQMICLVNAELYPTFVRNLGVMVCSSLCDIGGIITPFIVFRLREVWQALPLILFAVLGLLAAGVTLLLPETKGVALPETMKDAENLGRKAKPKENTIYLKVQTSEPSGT

MATE2-K (SLC47A2) [4] = biological target: T1, MATE2-K (SLC47A2); experiment: Cellular uptake into MATE2-K-overexpressing HEK293 cells vs EV control cells (HPLC-MS/MS)
OCT2 (SLC22A2) [5] = biological target: T2, OCT2 (SLC22A2); settings: pH 7.4
OCT2 = biological target: T6, OCT2 (Homo sapiens, UniProt O15244); design: method as in Higashi et al. (2014); settings: ref Higashi et al. (2014); cited from earlier work
T6 sequence (O15244 1-555): T2 sequence (O15244 1-555)

OCTs 1–3 = test system: OCTs 1–3; design: method as in Sala-Rabanal et al. (2013); settings: rodent orthologues, ref Sala-Rabanal et al. (2013), cited from earlier work
[6] = OCT2, net uptake, Michaelis–Menten
[7] = uptake ratio ≥2 = notable transport

K m (±SEM) (OCT2 (SLC22A2) [2]; [6]): 362(±156) μM
v max (±SEM) (OCT2 (SLC22A2) [2]; [6]): 4970 (±967) pmol/mg protein/min
higher v max of one enantiomer over the other, OCT2 (OCT2 (SLC22A2) [2]; label = enantiomer with higher v max): 2.0 fold
stereoselectivity OCT3 (uptake ratio of the more strongly transported enantiomer divided by that of the other) (OCT3 (SLC22A3); label = favoured enantiomer): 1.04-fold for (S)
Structure (SMILES): CC(C)[C@H](N)CO [L-valinol]
selectivity ratio at 1 min (MATE2-K (SLC47A2) [1]): 1.5
selectivity ratio at 2 min (OCT2 (SLC22A2) [3]): 1.04

Structure (SMILES): CC(C)NC(C)C [diisopropylamine]
uptake ratio MATE1 (transporter-overexpressing cells over EV control cells): mean (±SD, N) (MATE1 (SLC47A1)): 0.8 (0.02, 3) ^b
uptake ratio OCT2 (transporter-overexpressing cells over EV control cells): mean (±SD, N) (OCT2 (SLC22A2) [2]): 5.1 (1.2, 4) ^b
v max (±SEM) (OCT2 (SLC22A2) [2]): 1388 (±157) pmol/mg protein/min
uptake ratio OCT3 (transporter-overexpressing cells over EV control cells): mean (±SD, N) (OCT3 (SLC22A3); 10 μM substrate, 2 min, HEK293): 1.1 (0.2, 4)
uptake ratio OCT1 (transporter-overexpressing cells over EV control cells): mean (±SD, N) (OCT1 (SLC22A1)): 1.4 (0.3, 4)
uptake ratio MATE2K (transporter-overexpressing cells over EV control cells): mean (±SD, N) (MATE2-K (SLC47A2) [4]): 1.2 (0.1, 3)
CLint (±SEM) (OCT2 (SLC22A2) [5]): 20 (±12) μL/mg protein/min

substrate activity at MATE1 (in words) (MATE1 (SLC47A1); [7]): did not show any substrate activity
substrate activity at OCT2 (in words) (OCT2 (SLC22A2) [2]; [7]): did not show any substrate activity
substrate activity at OCT3 (in words) (OCT3 (SLC22A3); [7]): did not show any substrate activity
substrate activity at OCT1 (in words) (OCT1 (SLC22A1); [7]): did not show any substrate activity
substrate activity at MATE2-K (in words) (MATE2-K (SLC47A2) [4]; [7]): did not show any substrate activity
Structure (SMILES): NCCCCNCCCN [spermidine]
K m of spermidine transport (OCT2): 6.76 mM
K m of spermidine transport (OCTs 1–3; OCT-expressing oocytes): 1 mM
increase in spermidine uptake by OCT-expressing oocytes compared to non-injected oocytes (OCTs 1–3): up to 3 fold
